What was measured:
[1] = based on CiPA evaluations; cited from earlier work
[2] = molecular target: T1, late hNav1.5 (Homo sapiens, UniProt Q14524); assay: Automated patch clamp, late hNav1.5 current block (ATX-II activated); assay type: cell-based
T1 construct: expressed in transfected cells; host or cells: HEK293 or CHO, depending on site

[3] = molecular target: hCav1.2 (Homo sapiens, UniProt Q13936); assay: Automated patch clamp, hCav1.2 current block
Experimental: Peak current was measured during the step to 0 mV. Leak current was measured after applying a saturating concentration of a blocker such as cadmium (200 µM) at the end of each experiment to completely block hCav1.2 current.
Concentration-response relationships for each test article were independently investigated, i.e., each cell received only one test article, typically evaluating multiple concentrations in a cumulative fashion (lowest to highest concentrations). However, some platforms tested only one concentration per well. Each concentration response was based on a minimum of four concentrations, with a minimum of three wells used for each concentration. In cases of high variability, more cells per concentration were recorded. Prior to drug addition, cells received an addition of vehicle to measure non-test article-related effects such as addition artifacts. At the end of the experiment, a supramaximal concentration of a known inhibitory reference compound was applied to assess leak current and appropriate responsiveness of the test system. While it was recommended that a separate group of cells (n ≥ 3) be recorded for each experimental day to determine the baseline response to vehicle and to address day-to-day variability, this was not verified.
These criteria were applied to all APC platforms.
The steady state current at each concentration was used to determine the concentration-response relationships. Mean concentration-response data were fitted to a standard sigmoidal four-parameter logistic equation (GraphPad Prism 7; GraphPad Inc., La Jolla, CA) of the form: Y=Bottom+(Top−Bottom)/(1+10^∧(LogIC50−X)∗HillSlope) where Y is the current inhibition (in % of pre-drug control), X is the logarithm of drug concentration, and IC50 is the drug concentration producing half-maximal current inhibition. Curve fitting was performed using the following constraints: Top = 100%, Bottom = 0%, Hill Slope <2. No curve fitting was performed in cases with an obvious lack of a concentration-dependent current inhibition and/or small effect size (approximately ≤20%).

[4] = molecular target: T2, peak hNav1.5 (Homo sapiens, UniProt Q14524); assay: Automated patch clamp, peak hNav1.5 current block; assay type: cell-based
T2 construct: expressed in transfected cells; host or cells: HEK293 or CHO, depending on site

[5] = molecular target: T3, hERG (Homo sapiens, UniProt Q12809); assay: in vitro; details: hERG K+ current inhibition, Mean
[6] = molecular target: T3, hERG; design: expressed in transfected cells; host or cells: HEK293 or CHO, depending on site (site s06, Milnes protocol: HEK293); details: physiologic temperatures; cited from earlier work
[7] = site_platform s06_p4, 1.00E-09 mol/L
[8] = site_platform s06_p4, 3.00E-07 mol/L
[9] = site_platform s07_p6, 1.00E-09 mol/L
[10] = site_platform s07_p6, 3.00E-07 mol/L
[11] = site_platform s13_p2, 1.00E-09 mol/L
[12] = site_platform s14_p1, 3.00E-07 mol/L

T2 sequence (Q14524 whole entry): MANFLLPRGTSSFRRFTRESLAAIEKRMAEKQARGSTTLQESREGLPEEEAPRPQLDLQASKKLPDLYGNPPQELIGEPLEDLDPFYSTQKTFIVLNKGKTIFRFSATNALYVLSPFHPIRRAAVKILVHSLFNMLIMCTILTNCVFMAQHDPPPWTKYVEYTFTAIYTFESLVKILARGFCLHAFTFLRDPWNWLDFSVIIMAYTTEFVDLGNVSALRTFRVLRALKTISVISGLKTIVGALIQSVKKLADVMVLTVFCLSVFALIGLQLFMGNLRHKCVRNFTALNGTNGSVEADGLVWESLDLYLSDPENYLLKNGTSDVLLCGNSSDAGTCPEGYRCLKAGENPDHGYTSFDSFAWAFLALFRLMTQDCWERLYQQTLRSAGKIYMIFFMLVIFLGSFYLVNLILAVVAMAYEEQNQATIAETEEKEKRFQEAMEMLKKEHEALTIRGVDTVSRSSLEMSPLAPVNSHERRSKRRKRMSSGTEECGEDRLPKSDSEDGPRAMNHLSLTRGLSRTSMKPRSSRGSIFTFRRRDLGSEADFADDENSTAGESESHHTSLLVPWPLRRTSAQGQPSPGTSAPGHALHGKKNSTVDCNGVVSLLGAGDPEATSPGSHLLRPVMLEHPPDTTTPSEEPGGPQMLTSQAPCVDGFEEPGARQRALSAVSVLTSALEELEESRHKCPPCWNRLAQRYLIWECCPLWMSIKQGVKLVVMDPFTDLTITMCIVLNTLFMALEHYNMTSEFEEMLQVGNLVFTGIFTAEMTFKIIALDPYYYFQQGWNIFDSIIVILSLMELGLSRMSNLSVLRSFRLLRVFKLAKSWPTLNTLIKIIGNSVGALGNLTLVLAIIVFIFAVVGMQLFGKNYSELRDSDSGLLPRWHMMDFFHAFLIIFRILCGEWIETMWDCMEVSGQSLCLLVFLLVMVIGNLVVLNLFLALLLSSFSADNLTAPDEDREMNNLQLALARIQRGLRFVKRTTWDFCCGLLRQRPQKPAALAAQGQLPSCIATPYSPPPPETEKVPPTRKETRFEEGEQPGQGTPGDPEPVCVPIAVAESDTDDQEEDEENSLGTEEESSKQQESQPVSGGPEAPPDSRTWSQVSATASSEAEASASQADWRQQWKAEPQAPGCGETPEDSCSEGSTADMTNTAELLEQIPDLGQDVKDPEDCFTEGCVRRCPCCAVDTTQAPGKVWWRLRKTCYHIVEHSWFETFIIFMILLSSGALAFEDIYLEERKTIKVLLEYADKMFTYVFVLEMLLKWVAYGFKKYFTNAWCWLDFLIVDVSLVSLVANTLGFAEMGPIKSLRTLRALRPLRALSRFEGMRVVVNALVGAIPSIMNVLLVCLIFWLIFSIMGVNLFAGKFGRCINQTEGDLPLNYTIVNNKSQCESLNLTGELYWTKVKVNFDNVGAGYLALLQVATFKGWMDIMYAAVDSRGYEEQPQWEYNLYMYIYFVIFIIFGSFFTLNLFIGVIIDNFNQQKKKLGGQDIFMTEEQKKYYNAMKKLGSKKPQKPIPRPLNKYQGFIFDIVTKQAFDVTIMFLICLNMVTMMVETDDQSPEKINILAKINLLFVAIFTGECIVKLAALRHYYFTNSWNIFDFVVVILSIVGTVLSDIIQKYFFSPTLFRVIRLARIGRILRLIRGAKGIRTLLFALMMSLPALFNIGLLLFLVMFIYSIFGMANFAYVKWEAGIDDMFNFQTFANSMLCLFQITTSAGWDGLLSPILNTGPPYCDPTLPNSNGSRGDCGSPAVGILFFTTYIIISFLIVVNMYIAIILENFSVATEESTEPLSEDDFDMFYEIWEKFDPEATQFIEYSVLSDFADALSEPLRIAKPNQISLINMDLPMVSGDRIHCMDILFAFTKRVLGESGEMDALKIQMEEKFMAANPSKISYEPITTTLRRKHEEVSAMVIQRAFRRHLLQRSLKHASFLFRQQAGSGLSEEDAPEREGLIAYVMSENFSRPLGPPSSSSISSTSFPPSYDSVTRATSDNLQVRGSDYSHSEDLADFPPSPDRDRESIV
T1 sequence (Q14524 whole entry): as above

COc1cc(N)c(Cl)cc1C(=O)NC1CCN(CCCOc2ccc(F)cc2)CC1OC (stereo not drawn) [cis, cisapride]
TdP Risk Category [1]: Intermediate | log IC50, late hNav1.5 inhibition ([2]; site_platform s06_p4): no inh. | Late hNav1.5 Na+ current inhibition, Mean [2, 7]: -0.7% | Late hNav1.5 Na+ current inhibition, Mean [2, 8]: 31.8% | log IC50, late hNav1.5 inhibition ([2]; site_platform s07_p6): no inh. | Late hNav1.5 Na+ current inhibition, Mean [2, 9]: 4.3% | Late hNav1.5 Na+ current inhibition, Mean [2, 10]: -17.0% | log IC50, late hNav1.5 inhibition ([2]; site_platform s13_p2): no inh. | Late hNav1.5 Na+ current inhibition, Mean [2, 11]: -16.7% | Late hNav1.5 Na+ current inhibition, Mean ([2]; site_platform s13_p2, 3.00E-07 mol/L): 7.2% | log IC50, late hNav1.5 inhibition ([2]; site_platform s14_p1): no inh. | Late hNav1.5 Na+ current inhibition, Mean ([2]; site_platform s14_p1, 1.00E-09 mol/L): -6.9% | Late hNav1.5 Na+ current inhibition, Mean [2, 12]: -6.3% | IC50 ([3]; log IC50, half-maximal inhibitory concentration, site s16_p3): 447 nM | log IC50, half-maximal inhibitory concentration ([3]; site s01_p1): no inh. | Peak hCav1.2 Ca2+ current inhibition, Mean ([3]; site s01_p1, 1.00E-09 mol/L): 7.4% | Peak hCav1.2 Ca2+ current inhibition, Mean ([3]; site s01_p1, 3.00E-07 mol/L): 8.1% | log IC50, half-maximal inhibitory concentration ([3]; site s02_p2, corrected for rundown): no inh. | Peak hCav1.2 Ca2+ current inhibition, Mean ([3]; site s02_p2, corrected for rundown, 1.00E-09 mol/L): -5.7% | Peak hCav1.2 Ca2+ current inhibition, Mean ([3]; site s02_p2, corrected for rundown, 3.00E-07 mol/L): 14.5% | log IC50, half-maximal inhibitory concentration ([3]; site s06_p4): no inh. | Peak hCav1.2 Ca2+ current inhibition, Mean ([3]; site s06_p4, 1.00E-09 mol/L): -8.1% | Peak hCav1.2 Ca2+ current inhibition, Mean ([3]; site s06_p4, 3.00E-07 mol/L): -6.0% | log IC50, half-maximal inhibitory concentration ([3]; site s11_p1): no inh. | Peak hCav1.2 Ca2+ current inhibition, Mean ([3]; site s11_p1, 1.00E-09 mol/L): 7.8% | Peak hCav1.2 Ca2+ current inhibition, Mean ([3]; site s11_p1, 3.00E-07 mol/L): 10.4% | log IC50, half-maximal inhibitory concentration ([3]; site s14_p1): no inh. | Peak hCav1.2 Ca2+ current inhibition, Mean ([3]; site s14_p1, 1.00E-09 mol/L): -10.3% | Peak hCav1.2 Ca2+ current inhibition, Mean ([3]; site s14_p1, 3.00E-07 mol/L): -19.9% | nH, Hill slope ([3]; site s16_p3): 0.24 | Peak hCav1.2 Ca2+ current inhibition, Mean ([3]; site s16_p3, 1.00E-09 mol/L): 20.1% | Peak hCav1.2 Ca2+ current inhibition, Mean ([3]; site s16_p3, 3.00E-07 mol/L): 49.1% | log IC50, half-maximal inhibitory concentration ([3]; site s18_p1): no inh. | Peak hCav1.2 Ca2+ current inhibition, Mean ([3]; site s18_p1, 1.00E-09 mol/L): 2.8% | Peak hCav1.2 Ca2+ current inhibition, Mean ([3]; site s18_p1, 3.00E-07 mol/L): -16.5% | peak hNav1.5 Na+ current inhibition (result in words) ([4]; no inhibition = no obvious concentration-dependent current block and/or no curve fitting performed, all sites): no inhibition | log IC50, peak hNav1.5 Na+ current inhibition ([4]; site_platform s01_p1): no inh. | Peak hNav1.5 Na+ current inhibition, Mean ([4]; site_platform s01_p1, 1.00E-09 mol/L): 55.1% | Peak hNav1.5 Na+ current inhibition, Mean ([4]; site_platform s01_p1, 3.00E-07 mol/L): 41.7% | log IC50, peak hNav1.5 Na+ current inhibition ([4]; site_platform s02_p2): no inh. | Peak hNav1.5 Na+ current inhibition, Mean ([4]; site_platform s02_p2, 1.00E-09 mol/L): 0.1% | Peak hNav1.5 Na+ current inhibition, Mean ([4]; site_platform s02_p2, 3.00E-07 mol/L): 4.3% | log IC50, peak hNav1.5 Na+ current inhibition ([4]; site_platform s04_p3): no inh. | Peak hNav1.5 Na+ current inhibition, Mean ([4]; site_platform s04_p3, 1.00E-09 mol/L): 1.4% | Peak hNav1.5 Na+ current inhibition, Mean ([4]; site_platform s04_p3, 3.00E-07 mol/L): 9.8% | log IC50, peak hNav1.5 Na+ current inhibition ([4]; site_platform s06_p4): no inh. | Peak hNav1.5 Na+ current inhibition, Mean [4, 7]: -1.5% | Peak hNav1.5 Na+ current inhibition, Mean [4, 8]: 6.3% | log IC50, peak hNav1.5 Na+ current inhibition ([4]; site_platform s07_p6): no inh. | Peak hNav1.5 Na+ current inhibition, Mean [4, 9]: 3.2% | Peak hNav1.5 Na+ current inhibition, Mean [4, 10]: 12.5% | log IC50, peak hNav1.5 inhibition ([4]; site_platform s10_p3): no inh. | Peak hNav1.5 Na+ current inhibition, Mean ([4]; site_platform s10_p3, 1.00E-09 mol/L): -1.1% | Peak hNav1.5 Na+ current inhibition, Mean ([4]; site_platform s10_p3, 3.00E-07 mol/L): 11.3% | log IC50, peak hNav1.5 inhibition ([4]; site_platform s11_p1): no inh. | Peak hNav1.5 Na+ current inhibition, Mean ([4]; site_platform s11_p1, 1.00E-09 mol/L): 8.6% | Peak hNav1.5 Na+ current inhibition, Mean ([4]; site_platform s11_p1, 3.00E-07 mol/L): 10.0% | log IC50, peak hNav1.5 inhibition ([4]; site_platform s12_p2): no inh. | Peak hNav1.5 Na+ current inhibition, Mean ([4]; site_platform s12_p2, 1.00E-09 mol/L): -0.2% | Peak hNav1.5 Na+ current inhibition, Mean ([4]; site_platform s12_p2, 3.00E-07 mol/L): 6.8% | log IC50, peak hNav1.5 inhibition ([4]; site_platform s13_p2): no inh. | Peak hNav1.5 Na+ current inhibition, Mean [4, 11]: -1.8% | log IC50, peak hNav1.5 inhibition ([4]; site_platform s14_p1): no inh. | Peak hNav1.5 Na+ current inhibition, Mean [4, 12]: -0.4% | log IC50, peak hNav1.5 inhibition ([4]; site_platform s15_p1): no inh. | Peak hNav1.5 Na+ current inhibition, Mean ([4]; site_platform s15_p1, 1.00E-09 mol/L): 10.3% | Peak hNav1.5 Na+ current inhibition, Mean ([4]; site_platform s15_p1, 3.00E-07 mol/L): 21.4% | log IC50, peak hNav1.5 inhibition ([4]; site_platform s16_p3): no inh. | Peak hNav1.5 Na+ current inhibition, Mean ([4]; site_platform s16_p3, 1.00E-09 mol/L): 3.1% | Peak hNav1.5 Na+ current inhibition, Mean ([4]; site_platform s16_p3, 3.00E-07 mol/L): 13.4% | log IC50, peak hNav1.5 inhibition ([4]; site_platform s17_p1): no inh. | Peak hNav1.5 Na+ current inhibition, Mean ([4]; site_platform s17_p1, 3.00E-07 mol/L): 1.3% | log IC50, peak hNav1.5 inhibition ([4]; site_platform s18_p1): no inh. | Peak hNav1.5 Na+ current inhibition, Mean ([4]; site_platform s18_p1, 1.00E-09 mol/L): -22.5% | Peak hNav1.5 Na+ current inhibition, Mean ([4]; site_platform s18_p1, 3.00E-07 mol/L): 1.0% | log IC50, peak hNav1.5 inhibition ([4]; site_platform s19_p3): no inh. | Peak hNav1.5 Na+ current inhibition, Mean ([4]; site_platform s19_p3, 1.00E-09 mol/L): 6.7% | Peak hNav1.5 Na+ current inhibition, Mean ([4]; site_platform s19_p3, 3.00E-07 mol/L): 20.0% | inhibition at 4 min, 1e-09 mol/L [5]: 7.2% | inhibition at 4 min, 3e-07 mol/L [5]: 68.5% | inhibition at 7 min, 1e-09 mol/L [5]: 12%

O=c1[nH]c2ccccc2n1C1CCN(CCCC(c2ccc(F)cc2)c2ccc(F)cc2)CC1 [pimozide]
difference of hERG IC50 between two manual patch clamp laboratories [6]: 44 fold

Reference: PMC7101356, “Cross-site and cross-platform variability of automated patch clamp assessments of drug effects on human cardiac currents in recombinant cells” (Scientific Reports, 2020)
